Data: patent US20070027162A1, “Crystalline and amorphous 4-cyano-N-{(2R)-2-[4-(2,3-dihydro-benzo[1,4]dioxin-5-yl)-piperazin -1-yl]-propyl}-N-pyridin-2-yl-benzamide hydrochloride” (Wyeth, priority 2005, published 2007)
Like-named read-outs stand apart in the source and are kept apart here. Blank lines part the entries; values can stand above or below the compound they belong to.

Columns and labels:
Assay type in all cases: physicochemical
[1] = Solubility determination in a variety of solvents
Description: The solubility of the compound of Formula I in a variety of solvents was measured according to routine methods at 23° C. and 50° C.

[2] = Polymorph screen by reslurry at 23° C. and 50° C.; conditions: slurrying in a variety of different solvents at 23° C. and 50° C.
Description: Thermogravimetric analysis (TGA) and differential scanning calorimetry (DSC) data of products of various re-slurries are compared in Tables B and C below together with TGA/DSC data from the crystal form of the invention prepared according to Example 1. TGA/DSC data was obtained as described in Example 3. While DSC endotherms and TGA weight losses slightly differ between experiments, the variation is expected for HCl loss and decomposition of the sample. Powder X-ray diffraction data (see below Examples) of samples from each of the slurries were consistent with the diffraction pattern of FIG. 1 and Table 1.

[3] = Reslurry experiments, 12 days at RT, XRD while wet; conditions: ethanol, IPA, ethyl acetate, acetone, THF, acetonitrile, toluene, iso-propyl acetate, water, days 6 and 12
Description: 4-cyano-N-{(2R)-2-[4-(2,3-dihydro-benzo[1,4]dioxin-5-yl)-piperazin-1-yl]-propyl}-N-pyridin-2-yl-benzamide hydrochloride was reslurried in about 1-2 ml of ethanol, IPA, ethyl acetate, acetone, THF, acetonitrile, toluene, iso-propyl acetate, and water. The suspensions were stirred in 5 ml vials for 12 days at RT. The suspension samples were withdrawn at days 6 and 12, filtered, and analyzed via XRD while wet.

solubility ([1]; organic solvent or mixture, solvent 2-Propanol, 23° C., read-out: Solubility at 23° C.): 2 mg/mL | solubility ([1]; organic solvent or mixture, solvent 2-Propanol, 50° C., read-out: Solubility at 50° C.): 6 mg/mL | solubility ([1]; organic solvent or mixture, solvent Acetone, 23° C., read-out: Solubility at 23° C.): 6 mg/mL | solubility ([1]; organic solvent or mixture, solvent Acetone, 50° C., read-out: Solubility at 50° C.): 9 mg/mL | solubility ([1]; organic solvent or mixture, solvent CH3CN, 23° C., read-out: Solubility at 23° C.): 18 mg/mL | solubility ([1]; organic solvent or mixture, solvent CH3CN, 50° C., read-out: Solubility at 50° C.): 37 mg/mL | solubility ([1]; organic solvent or mixture, solvent DMSO, 23° C., read-out: Solubility at 23° C.): 246 mg/mL | solubility ([1]; organic solvent or mixture, solvent DMSO, 50° C., read-out: Solubility at 50° C.): 337 mg/mL | solubility ([1]; organic solvent or mixture, solvent EtOH, 23° C., read-out: Solubility at 23° C.): 19 mg/mL | solubility ([1]; organic solvent or mixture, solvent EtOH, 50° C., read-out: Solubility at 50° C.): 40 mg/mL | solubility ([1]; organic solvent or mixture, solvent Ethyl acetate, 23° C., read-out: Solubility at 23° C.): 16 mg/mL | solubility ([1]; organic solvent or mixture, solvent Ethyl acetate, 50° C., read-out: Solubility at 50° C.): 24 mg/mL | solubility ([1]; organic solvent or mixture, solvent Heptane, 23° C., read-out: Solubility at 23° C.): 1 mg/mL | solubility ([1]; organic solvent or mixture, solvent Heptane, 50° C., read-out: Solubility at 50° C.): 1 mg/mL | solubility ([1]; organic solvent or mixture, solvent MeOH, 23° C., read-out: Solubility at 23° C.): 378 mg/mL | solubility ([1]; organic solvent or mixture, solvent MeOH, 50° C., read-out: Solubility at 50° C.): 989 mg/mL | solubility ([1]; organic solvent or mixture, solvent THF, 23° C., read-out: Solubility at 23° C.): 4 mg/mL | solubility ([1]; organic solvent or mixture, solvent THF, 50° C., read-out: Solubility at 50° C.): 5 mg/mL | solubility ([1]; organic solvent or mixture, solvent Toluene, 23° C., read-out: Solubility at 23° C.): 8 mg/mL | solubility ([1]; organic solvent or mixture, solvent Toluene, 50° C., read-out: Solubility at 50° C.): 14 mg/mL | solubility ([1]; organic solvent or mixture, solvent t-Butylmethyl ether (t-BME), 50° C., read-out: Solubility at 50° C.): 1 mg/mL | solubility ([1]; solvent Water, 23° C., read-out: Solubility at 23° C.): 49 mg/mL | solubility ([1]; solvent Water, 50° C., read-out: Solubility at 50° C.): > 100 mg/mL | Solubility in water (qualitative) ([1]; water, remark explaining oiling out on cooling): very high solubility
SMILES: C[C@H](CN(C(=O)c1ccc(C#N)cc1)c1ccccn1)N1CCN(c2cccc3c2OCCO3)CC1.Cl [Formula I, 4-cyano-N-{(2R)-2-[4-(2,3-dihydro-benzo[1,4]dioxin-5-yl)-piperazin-1-yl]-propyl}-N-pyridin-2-yl-benzamide hydrochloride]

Stability of crystal form upon slurrying [2]: remained stable | Form transformation on reslurry (XRD) [3]: No transformation was noticed
SMILES: C[C@H](CN(C(=O)c1ccc(C#N)cc1)c1ccccn1)N1CCN(c2cccc3c2OCCO3)CC1.Cl [Form A, 4-cyano-N-{(2R)-2-[4-(2,3-dihydro-benzo[1,4]dioxin-5-yl)-piperazin-1-yl]-propyl}-N-pyridin-2-yl-benzamide hydrochloride]
